Test results published in PMC3117731, “A systems biology approach to dynamic modeling and inter-subject variability of statin pharmacokinetics in human hepatocytes” (BMC Systems Biology, 2011).
Where “and” joins values, the source holds several entries; their conditions need not be identical. Identical values can stand only once. Like-named read-outs stand apart in the source and are kept apart here.

Legend:
CYP3A4 = CYP3A4 (Homo sapiens, UniProt P08684)
[1] = system: primary human hepatocytes; test: Time-series experiment of atorvastatin biotransformation in primary human hepatocytes (extra- and intracellular metabolites by LC-MS-MS, model fit); format: in vitro ADME; details: individual 1; 10 μM AS
Experimental: Hepatocytes were cultured on collagen gel precoated 6-well plates at a density of 1.5·10^6 cells/well. Cells were allowed to attach to the collagen layer. After transport, culture media was disposed and attached cells were cultured 24 h at 37°C in a humidified chamber with 95%/5% air/CO2 in serum-free medium WME, supplemented with albumin (0.1% (v/v)), penicillin/streptomycin (100 U/ml), stabilized L-glutamine (2 mM), dexamethasone dihydrogenphosphate (0.025% (v/v)) and ITS-X (5 mg insulin, 3.35 μg natrium-selenit, 2.75 mg transferrin and 1 mg ethanolamine), further named SFM.
At specified time-points, three wells were further treated for the preparation of samples for the measurement of extracellular and intracellular metabolites, respectively. SFM media was collected and 50 μL formic acid and deuterated internal standard was added for the further measurement of extracellular metabolites. Cells were harvested in pre-cooled albumin-free SFM, disrupted by freeze/thaw and ultra-sonification and centrifuged. The supernatant was used for the determination of intracellular metabolites.
MS-MS analysis was performed on an Esquire HCT ultra ion trap mass spectrometer (Bruker Daltonics, Bremen, Germany) coupled to an HPLC 1100-System (Agilent, Waldbronn, Germany) consisting of binary pump G1312A, degasser G1379A, well-plate sampler G1367A and column thermostat G1330B. […] The following parameters were applied: nebulizer 45 psi, dry gas 10 l/min, dry temperature 300°C, capillary 4100 V, scan range 200 - 600 m/z.

[2] = system: primary human hepatocytes; test: Apparent (lumped active transport and passive diffusion) import and export in primary human hepatocytes; format: in vitro ADME
Source text: Thus, in the following, mechanisms of active transport and passive diffusion are lumped, resulting in the apparent transport rate for import,(12) [drawing 22]
and in the apparent transport rate for export(13) [drawing 23]
described by the product of apparent rate constant κ im/ex of import or export and extra- or intracellular concentration [drawing 24] , respectively (Figure 3). Consequently, the rate constants κ of import and export are set individually, and were to be estimated in the optimization procedure.

[3] = design: method as in PMID 8272408; details: estimated from experimental observations; assumed to be same for ASLpOH and ASLoOH; cited from earlier work
PON enzymes = test: PON mediated lactone hydrolysis, rate constants estimated in the optimization procedure; format: in vitro ADME, human; details: nominal value from optimization
Source text: The lactone metabolites are either hydrolyzed chemically to the respective acid metabolites inside (c) or outside (m) the cell, or enzymatically by the contribution of PON enzymes inside the cell. Both reactions are described as first order kinetics(4) [drawing 6]
Therefore, maximal rate constants r max of CYP3A4 hydroxylation and UGT1A3 lactonization were predicted for individual 2 and 3 via the relative abundance approach (equation (11)) using the r max -parameters of individual 1 (Table 3) and the protein concentrations observed on the primary human hepatocytes (Table 4). These parameters were then fixed in the optimization. Further, the rate constants k of PON mediated lactone hydrolysis of individual 2 and 3 were estimated in the optimization procedure.

[4] = Individual 1, nominal value from optimization, per ml intracellular volume
[5] = Individual 2, predicted via relative abundance approach from individual 1 and CYP3A4 protein concentration
[6] = Individual 1, nominal value from optimization
[7] = Individual 2, nominal value from optimization
[8] = Individual 3, nominal value from optimization

Chain of CYP3A4 (P08684 2-503 limits assumed): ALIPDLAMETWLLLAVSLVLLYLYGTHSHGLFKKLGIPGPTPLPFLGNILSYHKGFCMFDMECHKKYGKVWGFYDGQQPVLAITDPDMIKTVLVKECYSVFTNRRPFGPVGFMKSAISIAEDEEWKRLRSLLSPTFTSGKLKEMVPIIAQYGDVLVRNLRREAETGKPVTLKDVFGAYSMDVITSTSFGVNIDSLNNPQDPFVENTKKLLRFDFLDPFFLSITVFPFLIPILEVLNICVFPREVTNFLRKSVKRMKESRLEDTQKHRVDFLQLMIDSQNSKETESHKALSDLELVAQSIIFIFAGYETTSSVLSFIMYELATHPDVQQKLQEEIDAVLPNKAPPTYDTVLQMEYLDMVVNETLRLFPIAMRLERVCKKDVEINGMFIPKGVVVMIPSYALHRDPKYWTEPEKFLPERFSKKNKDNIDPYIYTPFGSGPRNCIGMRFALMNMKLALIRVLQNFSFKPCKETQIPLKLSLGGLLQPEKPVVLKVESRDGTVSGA

Molecule	rmax,3A4 (maximal rate of CYP3A4 hydroxylation to the labelled metabolite) (CYP3A4; [4]) [pmol/min/mL]	rmax,3A4 (maximal rate of CYP3A4 hydroxylation to the labelled metabolite) (CYP3A4; [5]) [pmol/min/mL]	ratio of intracellular AUC 0-600 min to extracellular AUC 0-600 min [1]	ratio of intracellular c max to extracellular c max [1]	κex (apparent rate constant of export) [2, 6]	κex (apparent rate constant of export) [2, 7]	κex (apparent rate constant of export) [2, 8]	κim (apparent rate constant of import) [2, 6] [µL/min]	κim (apparent rate constant of import) [2, 7] [µL/min]	κim (apparent rate constant of import) [2, 8] [µL/min]	kCR (rate constant of spontaneous hydrolysis of the lactone) [3] [min⁻¹]	κPON (rate constant of PON mediated lactone hydrolysis) (PON enzymes; Individual 1)	κPON (rate constant of PON mediated lactone hydrolysis) (PON enzymes; Individual 2)	κPON (rate constant of PON mediated lactone hydrolysis) (PON enzymes; Individual 3)
CC(C)c1c(C(=O)Nc2ccc(O)cc2)c(-c2ccccc2)c(-c2ccc(F)cc2)n1CC[C@@H]1C[C@@H](O)CC(=O)O1 [ASLpOH, para-hydroxy-atorvastatin lactone]	1228	731	38.2	34.5	1.13 µL/min and 33.7 µL/min	1.01 µL/min and 7.24 µL/min	0.59 µL/min and 8.59 µL/min	–	–	–	–	–	–	–
CC(C)c1c(C(=O)Nc2ccccc2O)c(-c2ccccc2)c(-c2ccc(F)cc2)n1CC[C@@H]1C[C@@H](O)CC(=O)O1 [ASLoOH, ortho-hydroxy-atorvastatin lactone]	2756	1640	–	–	2.67 µL/min	86.3 µL/min	0.77 µL/min	26.1	530	2.43	–	–	–	–
CC(C)c1c(C(=O)Nc2ccccc2O)c(-c2ccccc2)c(-c2ccc(F)cc2)n1CCC(O)CC(O)CC(=O)O (stereo not shown) [ASoOH, ortho-hydroxy-atorvastatin acid]	3345	1991	4.5	2.5	1.60 µL/min	3.62 µL/min	0.91 µL/min	0.39	0.22	0.00	–	–	–	–
CC(C)c1c(C(=O)Nc2ccc(O)cc2)c(-c2ccccc2)c(-c2ccc(F)cc2)n1CC[C@@H](O)C[C@@H](O)CC(=O)O [ASpOH, para-hydroxy-atorvastatin acid]	1108	660	–	–	0.80 µL/min	1.25 µL/min	0.52 µL/min	3.96	2.01	2.53	–	–	–	–
CC(C)c1c(C(=O)Nc2ccccc2)c(-c2ccccc2)c(-c2ccc(F)cc2)n1CC[C@@H]1C[C@@H](O)CC(=O)O1 [ASL, atorvastatin lactone]	–	–	–	–	21.8 µL/min	2.48 µL/min	10.5 µL/min	275	25.8	82.7	0.0025	308 10^-3 min^-1	99.2 10^-3 min^-1	0.00 10^-3 min^-1
hydroxy-atorvastatin lactones (para- and ortho-) [ASLOH]	–	–	–	–	–	–	–	–	–	–	–	280 10^-3 min^-1	545 10^-3 min^-1	82.9 10^-3 min^-1
